Measured values published in the Deep4Chem optical property database.

Assay: solvent given as SMILES

C(S/C=C/c1ccc(/C=C/SC=C2CCCCC2)cc1)=C1CCCCC1
emission maximum (in ClCCl): 421 nm

CCN(CC)c1ccc2cc(-c3ccc(-c4ccc(-c5cc6ccccc6oc5=O)cc4)cc3)c(=O)oc2c1
emission maximum (in ClCCl): 478 nm

CN(C)c1ccc2c3c(ccc2c1)CCCC3=O
emission maximum (in C1CCCCC1): 449 nm
emission maximum (in CC#N): 523 nm
emission maximum (in CC(C)O): 520 nm
emission maximum (in CCC(C)=O): 517 nm
emission maximum (in CCO): 495 nm
emission maximum (in CCOC(C)=O): 506 nm
emission maximum (in CS(C)=O): 538 nm
emission maximum (in Cc1ccccc1): 478 nm
emission maximum (in ClCCl): 511 nm
emission maximum (in Clc1ccccc1): 498 nm

COC(=O)C[C@H](NC(=O)[C@H](Cc1c[nH]c2ccccc12)NC(=O)OC(C)(C)C)C(=O)OC
emission maximum (in CC#N): 330 nm
emission maximum (in CCOC(C)=O): 327 nm
emission maximum (in CO): 338 nm

Clc1ccc2cc3cccc[n+]3cc2c1
emission maximum (in O): 408 nm

N#CC1=C(N)n2c(=O)c3ccccc3c(=O)n2C1c1ccccc1 (stereo unspecified)
emission maximum (in CS(C)=O): 438 nm

CC1=CC(C)=[N+]2C1=C(c1ccc(I)cc1)c1c(C)cc(C)n1[B-]21OCCO1
emission maximum (in ClC(Cl)Cl): 520.7 nm

COc1cc2c3c4c(c5ccc(C(C)(C)C)cc5c5cc(C(C)(C)C)cc(c2c(OC)c1OC)c45)=[N+]1C3=Nc2c3c4cc(OC)c(OC)c(OC)c4c4cc(C(C)(C)C)cc5c6cc(C(C)(C)C)ccc6c(c3c54)n2[B-]1(F)F
emission maximum (in Cc1ccccc1): 832 nm

COc1ccc(-c2c(-c3ccc(OC)cc3)c3c4c(cccc4c2-c2ccccc2)C(=O)c2ccccc2-3)cc1
emission maximum (in CC#N): 527 nm
emission maximum (in CO): 579 nm

c1ccc2c(c1)Oc1ccccc1N2c1ccc2c(c1)c1cc(N3c4ccccc4Oc4ccccc43)ccc1c1nc3ccccc3nc21
emission maximum (in Cc1ccccc1): 614 nm

c1cc2ccc3ccc4cc3c2cc1c1ccc2ccc3ccc(cc3c2c1)c1ccc2c(c1)c1cc4ccc1[C@]13OCCO[C@]21OCCO3
emission maximum (in Cc1ccccc1): 421 nm

O=P1(c2ccccc2)C(c2ccc(C(F)(F)F)cc2)=Cc2cc3ccccc3cc21 (stereo unspecified)
emission maximum (in ClCCl): 425 nm

CC(C)(C)c1ccc2oc3nc4oc5ccc(N(c6ccccc6)c6ccccc6)cc5c4cc3c2c1
emission maximum (in ClC(Cl)Cl): 379 nm

CC1=C2C=CC(c3ccccc3)=[N+]2[B-](F)(F)n2c1ccc2-c1ccccc1
emission maximum (in ClCCl): 577 nm

O=C1c2ccccc2-c2c(-c3cc(Br)ccc3O)[nH]c(=O)n21
emission maximum (in CC#N): 475 nm
emission maximum (in CO): 492 nm
emission maximum (in ClCCl): 474 nm

Cc1c(COC(=O)Cc2cccc3ccccc23)n2c(OCC(=O)Cc3cccc4ccccc34)c(C)c(=O)n2c1=O
emission maximum (in CCO): 458 nm

c1ccc(-c2nc3sc4ccccc4c3s2)cc1
emission maximum (in CS(C)=O): 412 nm

O=C1c2ccccc2-c2nc3c4ccccc4c4ccccc4c3n21
emission maximum (in ClCCl): 616 nm

CC[N+](CC)=c1ccc2cc3c(oc-2c1)-c1ccc(N(C)C)cc1CC3
emission maximum (in CCO): 644 nm
emission maximum (in ClCCl): 642 nm
emission maximum (in O): 641 nm

CC1=N/C(=C\c2cc(N(C)C)ccc2C#N)C(=O)N1C
emission maximum (in C1CCOC1): 560 nm
emission maximum (in CC#N): 606 nm
emission maximum (in CCCCCC): 492 nm

c1ccc2c(c1)Oc1ccccc1C21c2cc(-c3ccc4ccc5cccc6ccc3c4c56)ccc2-c2ccc(-c3ccc4ccc5cccc6ccc3c4c56)cc21
emission maximum (in ClC(Cl)Cl): 422 nm

CC1=C(c2ccccc2)C(C)=[N+]2C1=C(c1c(-c3ccccn3)nc3ccccn13)c1c(C)cc(C)n1[B-]2(F)F
emission maximum (in ClCCl): 566 nm

CCCCN1C(=O)c2cccc3c(N(C)C)ccc(c23)C1=O
emission maximum (in Cc1ccccc1): 486 nm

CCC1(CC)c2cc(B(c3c(C)cc(C)cc3C)c3c(C)cc(C)cc3C)ccc2-c2ccc(N(c3ccccc3)c3ccccc3)cc21
emission maximum (in C1CCOC1): 482 nm
emission maximum (in CC#N): 531 nm
emission maximum (in CC(C)=O): 499 nm
emission maximum (in CCCCCC): 423 nm
emission maximum (in CN(C)C=O): 532 nm
emission maximum (in Cc1ccccc1): 448 nm
emission maximum (in ClC(Cl)Cl): 461 nm

CC(=O)Nc1ccc(C2=N/C(=C\c3ccc(C#N)cc3)C(=O)O2)cc1
emission maximum (in C1COCCO1): 461 nm

O=S1c2ccc(-c3c4ccccc4cc4ccccc34)cc2-c2cc(-c3c4ccccc4cc4ccccc34)ccc21
emission maximum (in C1CCCCC1): 405.03 nm
emission maximum (in CC#N): 508.48 nm
emission maximum (in ClCCl): 471.15 nm

CC1(C)c2ccccc2N(c2ccc(-c3nc([C@]45CC6CC(C[C@@H](C6)C4)C5)nc([C@]45C[C@H]6C[C@@H](C[C@H](C6)C4)C5)n3)cc2)c2ccccc21
emission maximum (in CC(C)(C)c1ccc(-n2c3ccc([Si](c4ccccc4)(c4ccccc4)c4ccccc4)cc3c3cc([Si](c4ccccc4)(c4ccccc4)c4ccccc4)ccc32)cc1): 450 nm
emission maximum (in Cc1ccccc1): 469.63 nm

CCCCCCCCCCCCCCCCCCOc1ccc([B-]23NC(c4ccccc4)=Nc4cccc([n+]42)N=C(c2ccccc2)N3)cc1
emission maximum (in ClCCl): 511 nm

Cc1cccc(C)c1-c1cc2c(C)c3c4ccc5nc6c(ccc7c8c(C)c9cc(-c%10c(C)cccc%10C)c(-c%10c(C)cccc%10C)cc9c(C)c8c76)nc5c4c3c(C)c2cc1-c1c(C)cccc1C
emission maximum (in ClC(Cl)Cl): 670 nm

CCC1=C(C)C2=C(/C=C/Sc3ccccc3)c3c(C)c(CC)c(C)n3[B-](F)(F)[N+]2=C1C
emission maximum (in ClCCl): 580 nm

CN(C)c1ccc(C(=O)Nc2cccc(Br)c2)cc1
emission maximum (in C1CCCCC1): 338 nm
emission maximum (in C1CCOC1): 455 nm
emission maximum (in CC#N): 496 nm
emission maximum (in CCOCC): 445 nm

CCCCN(CCCC)c1ccc(C#Cc2cc(C#Cc3cc(C(F)(F)F)cc(C(F)(F)F)c3)c(C#Cc3cc(C(F)(F)F)cc(C(F)(F)F)c3)cc2C#Cc2ccc(N(CCCC)CCCC)cc2)cc1
emission maximum (in ClCCl): 556 nm
emission maximum (in c1ccccc1): 506 nm

COc1ccc2c(C=C(C#N)C#N)cc3ccc4cc(C=C(C#N)C#N)c5ccc(OC)cc5c4c3c2c1
emission maximum (in ClC(Cl)Cl): 545 nm

CCc1ccccc1-c1c2ccccc2c(C#Cc2ccccc2)c2cc3ccccc3cc12
emission maximum (in ClCCl): 537 nm

CC1=CC(Br)=CN2C[n+]3cc(Br)cc(C)c3N=C12
emission maximum (in CO): 502 nm

N#CC(C#N)=Cc1ccc(-c2ccc(-c3nc4ccccc4s3)c(O)c2)o1
emission maximum (in CCO): 501 nm
emission maximum (in ClCCl): 502 nm
emission maximum (in O): 596 nm

Cc1cc(C)c(C2=C3C=C(/C=C/C(=O)OC(C)(C)C)C=[N+]3[B-](F)(F)n3cc(/C=C/C(=O)OC(C)(C)C)cc32)c(C)c1
emission maximum (in ClCCl): 610 nm

CCCC1(CCC)c2cc(-c3cccc(Cc4ccc(/C=C/c5ccccc5)cc4)c3)ccc2-c2ccc(-c3cccc(Cc4ccc(/C=C/c5ccccc5)cc4)c3)cc21
emission maximum (in C1CCCCC1): 359 nm

Cc1ccc2nc3c(=O)[nH]c(=O)[nH]c3nc2c1C
emission maximum (in CC#N): 461 nm

Fc1cc(-c2nc(-c3ccccc3)nc(-c3ccccc3)n2)ccc1-n1c2ccccc2c2c3c(ccc21)C1(c2ccccc2-c2ccccc21)c1ccccc1-3
emission maximum (in C1CCOC1): 487.96 nm
emission maximum (in C1COCCO1): 461.11 nm
emission maximum (in CN(C)C=O): 533.56 nm
emission maximum (in Cc1ccccc1): 448 nm
emission maximum (in ClC(Cl)Cl): 500.23 nm

COc1ccc2c(c1)c1cc(OC)ccc1n2-c1ccc2c(c1)-c1cc(-n3c4ccc(OC)cc4c4cc(OC)ccc43)ccc1P2(=O)c1ccccc1
emission maximum (in Cc1ccccc1): 476 nm
emission maximum (in c1ccc2c(c1)c1ccccc1n2-c1ccc(-c2ccc(-n3c4ccccc4c4ccccc43)cc2)cc1): 490 nm

CC1(C)C(=O)C=Cc2ccc(N3CCC3)cc21
emission maximum (in O): 555 nm

[C-]#[N+]c1ccc(-c2ccc(NC)cc2)cc1
emission maximum (in C1CCCCC1): 368 nm
emission maximum (in C1CCOC1): 406 nm
emission maximum (in C1COCCO1): 395 nm
emission maximum (in CC#N): 421 nm
emission maximum (in CC(C)=O): 427 nm
emission maximum (in CCCCCC): 366 nm
emission maximum (in CCOC(C)=O): 403 nm
emission maximum (in CN(C)C=O): 435 nm
emission maximum (in CO): 422 nm
emission maximum (in CS(C)=O): 436 nm
emission maximum (in Cc1ccccc1): 388 nm
emission maximum (in ClC(Cl)Cl): 400 nm
emission maximum (in ClCCl): 405 nm
emission maximum (in O): 458 nm
emission maximum (in c1ccncc1): 421 nm

c1ccc(-n2c3ccccc3c3cc(-c4cccc(-n5c6cccnc6c6c7sc8ccccc8c7ccc65)c4)ccc32)cc1
emission maximum (in ClCCl): 384 nm

CCN(CC)c1ccc2c(C#N)c(/C=C(\C#N)c3nc4ccccc4s3)c(=O)oc2c1
emission maximum (in C1COCCO1): 647 nm
emission maximum (in CC#N): 679 nm
emission maximum (in CCO): 692 nm
emission maximum (in CCOC(C)=O): 664 nm
emission maximum (in CO): 701 nm
emission maximum (in Cc1ccccc1): 637 nm
emission maximum (in ClCCl): 666 nm

CCN(CC)c1ccc(OC)c(C=O)c1
emission maximum (in CC#N): 548 nm
emission maximum (in CC(C)O): 600 nm
emission maximum (in CCCCCC): 470 nm
emission maximum (in CCOC(C)=O): 518 nm
emission maximum (in CO): 645 nm
emission maximum (in CS(C)=O): 558 nm
emission maximum (in Cc1ccccc1): 509 nm
emission maximum (in ClCCl): 538 nm

CCCCOC(=O)c1cc(Cl)c2c3c(Cl)cc4c5c(cc(Cl)c(c6c(Cl)cc(C(=O)OCCCC)c1c26)c53)C(=O)N(c1c(C(C)C)cccc1C(C)C)C4=O
emission maximum (in Cc1ccccc1): 530 nm

BrC1=CN2C[n+]3cc(Br)c4ccccc4c3N=C2c2ccccc21
emission maximum (in CO): 502 nm

FC(F)(F)c1cc2n(n1)[B-](c1ccccc1)(c1ccccc1)[n+]1ccc3ccccc3c1-2
emission maximum (in C1CCCCC1): 410 nm
emission maximum (in Cc1ccccc1): 410 nm
emission maximum (in ClCCl): 404 nm

CCCCCCCC[n+]1ccc(-c2cc[n+](CCCCCCCC)cc2)cc1
emission maximum (in CC#N): 353 nm

F[B-]1(F)OC(c2ccccc2)=CC(c2ccccc2)=[O+]1
emission maximum (in CC#N): 398 nm
emission maximum (in ClC(Cl)(Cl)Cl): 389 nm

c1ccc(-c2nc(-c3ccccc3)nc(-c3ccc(N4c5ccccc5CCc5ccccc54)cc3)n2)cc1
emission maximum (in Cc1ccccc1): 422.22 nm

CCC1=C(C)C(=O)n2c1cc1c(c(C)c(C(=O)OC)n1C)c2=O
emission maximum (in C1CCCCC1): 435 nm
emission maximum (in CO): 501 nm
emission maximum (in CS(C)=O): 482 nm
emission maximum (in ClC(Cl)Cl): 455 nm
emission maximum (in c1ccccc1): 447 nm

CCCC1=Cc2nc1ccc1[nH]c(cc1CCO)c1nc(ccc3[nH]c2cc3CCC)C(CCO)=C1
emission maximum (in Cc1ccccc1): 642 nm

CC(=O)Nc1ccc2c3cccc4cccc(c5cccc1c52)c43
emission maximum (in C1COCCO1): 471 nm
emission maximum (in CC#N): 471 nm
emission maximum (in CCCCOCCCC): 471 nm
emission maximum (in CCOC(C)=O): 471 nm

Nc1ccccc1/C=C/C(F)(F)F
emission maximum (in C1CCOC1): 427 nm
